We go through ten compounds from patent US9938271B2, “Inhibitors of human immunodeficiency virus replication” (VIIV HEALTHCARE UK (NO. 5) LIMITED, priority 2014, dated 2018).

Each structure is given as a SMILES string.

The first assay deals with NL-RLuc virus (recombinant HIV NL4-3 with Renilla Luciferase gene) in MT-2 cells. Put plainly: Inhibition of HIV replication (NL-RLuc luciferase reporter virus in MT-2 cells). In kind it is cell-based. The settings on record: MT2, 120 h, MT-2 cells infected with NL-RLuc virus, 5 days of incubation, luciferase readout, 10% FBS. From the text:
Inhibition of HIV Replication:
A recombinant NL-RLuc proviral clone was constructed in which a section of the nef gene from NL4-3 was replaced with the Renilla Luciferase gene. This virus is fully infectious and can undergo multiple cycles of replication in cell culture. In addition, the luciferous reporter provides a simple and easy method for quantitating the extent of virus growth and consequently, the antiviral activity of test compounds. The plasmid pNLRLuc contains the proviral NL-Rluc DNA cloned into pUC 18 at the PvuII site. The NL-RLuc virus was prepared by transfection of 293T cells with the plasmid pNLRLuc. Transfections were performed using the LipofectAMINE PLUS kit from Invitrogen (Carlsbad, Calif.) according to the manufacturer and the virus generated was titered in MT-2 cells. For susceptibility analyses, the titrated virus was used to infect MT-2 cells in the presence of compound, and after 5 days of incubation, cells were processed and quantitated for virus growth by the amount of expressed luciferase. Assay media was RPMI 1640 supplemented with 10% heat inactivated fetal bovine serum (FBS), 100 units/ml penicillin G/100 units/ml streptomycin, 10 mM HEPES buffer pH 7.55 and 2 mM L-glutamine. The results from at least 2 experiments were used to calculate the EC50 values. Luciferase was quantitated using the Dual Luciferase kit from Promega (Madison, Wis.). Susceptibility of viruses to compounds was determined by incubation in the presence of serial dilutions of the compound. The 50% effective concentration (EC50) was calculated by using the exponential form of the median effect equation where (Fa)=1/[1+(ED50/drug conc.)^m] (Johnson V A, Byington R T. Infectivity Assay. In Techniques in HIV Research. ed. Aldovini A, Walker B D. 71-76. New York: Stockton Press. 1990). Activity equal to A refers to a compound having an EC50≤100 nM, while B and C denote compounds having an EC50 between 100 nM and 1 uM (B) or >1 uM (C).
On to `Cc1cn2cc(-c3cccc(-c4ccccc4F)c3)nc2c(-c2cc(F)c3c(c2C)CCCO3)c1[C@H](OC(C)(C)C)C(=O)O` [Example 3, (2S)-2-(tert-Butoxy)-2-(8-(8-fluoro-5-methylchroman-6-yl)-2-(2′-fluoro-[1,1′-biphenyl]-3-yl)-6-methylimidazo[1,2-a]pyridin-7-yl)acetic acid], for which the EC50 was 11 nM.

For `Cc1cn2cc(-c3cccc(-c4ccccc4F)c3)nc2c(-c2ccccc2F)c1[C@H](OC(C)(C)C)C(=O)O` [Example 4, (2S)-2-(tert-Butoxy)-2-(2-(2′-fluoro-[1,1′-biphenyl]-3-yl)-8-(2-fluorophenyl)-6-methylimidazo[1,2-a]pyridin-7-yl)acetic acid], the 50% effective concentration (EC50) is 265 nM.

With `Cc1cn2cc(-c3cccc(-c4ccccc4F)c3)nc2c(-c2ccc3c(c2)CCCO3)c1[C@H](OC(C)(C)C)C(=O)O` [Example 7, (S)-2-(tert-Butoxy)-2-(8-(chroman-6-yl)-2-(2′-fluoro[1,1′-biphenyl]-3-yl)-6-methylimidazo[1,2-a]pyridin-7-yl)acetic acid], the EC50 is 19 nM.

On to `Cc1cn2cc(-c3cccc(-c4ccc(F)c(F)c4F)c3)nc2c(-c2ccc3c(c2)CCCO3)c1[C@H](OC(C)(C)C)C(=O)O` [Example 8, (S)-2-(tert-Butoxy)-2-(8-(chroman-6-yl)-6-methyl-2-(2′,3′,4′-trifluoro-[1,1′-biphenyl]-3-yl)imidazo[1,2-a]pyridin-7-yl)acetic acid], for which the concentration giving a half-maximal response (EC50) came out at 10 nM.

In the case of `Cc1cn2cc3nc2c(c1[C@H](OC(C)(C)C)C(=O)O)N1CCC(C)(CC1)OCCCC[C@H](C)Oc1cc(F)ccc1-c1cccc-3c1` [Example 9, (2S)-2-(tert-Butoxy)-2-[(22S)-18-fluoro-4,22,28-trimethyl-21,27-dioxa-1,6,8-triazahexacyclo[26.2.2.1^6,9.1^10,14.0^2,7.0^15,20]tetratriaconta-2,4,7,9(34),10(33),11,13,15,17,19-decaen-3-yl]acetic acid], the EC50 is 36 nM.

Take `Cc1cn2c(C(C)(C)C)c3nc2c(c1[C@H](OC(C)(C)C)C(=O)O)N1CCC(C)(CC1)OCCCC[C@H](C)Oc1cc(F)ccc1-c1cccc-3c1` [Example 10, (2S)-2-(tert-Butoxy)-2-[(22S)-34-tert-butyl-18-fluoro-4,22,28-trimethyl-21,27-dioxa-1,6,8-triazahexacyclo[26.2.2.1^6,9.1^10,14.0^2,7.0^15,20]tetratriaconta-2,4,7,9 (34),10(33),11,13,15,17,19-decaen-3-yl]acetic acid]: the EC50 amounted to 148 nM.

The assay is the same for the next values; noted with them: {}.
Consider `Cc1cn2cc(-c3cccc(-c4ccc(F)cc4)c3)nc2c(-c2cc(F)c3c(c2C)CCCO3)c1[C@H](OC(C)(C)C)C(=O)O` (single isomer, unassigned) [Example 1], for which the half-maximal effective concentration (EC50) was 16 nM.

Regarding `Cc1cn2cc(-c3cccc(-c4ccc(F)cc4)c3)nc2c(-c2cc(F)c3c(c2C)CCCO3)c1[C@H](OC(C)(C)C)C(=O)O` (single isomer, unassigned) [Example 2], the EC50 came to 187 nM.

For `Cc1ccccc1-c1cccc(-c2cn3cc(C)c([C@H](OC(C)(C)C)C(=O)O)c(-c4cc(F)c5c(c4C)CCCO5)c3n2)c1` (single isomer, unassigned) [Example 5], the EC50 is 34 nM.

For `Cc1ccccc1-c1cccc(-c2cn3cc(C)c([C@H](OC(C)(C)C)C(=O)O)c(-c4cc(F)c5c(c4C)CCCO5)c3n2)c1` (single isomer, unassigned) [Example 6], the half-maximal effective concentration (EC50) came out at 560 nM.
